Earlier results on two molecules are cited in patent US6319912A, “Cyclic regimens using 2,1-benzisothiazoline 2,2-dioxides” (American Home Products Corporation, priority 2000, dated 2001).

The subject of this data set is hormone dependent prostate cancer. The settings on record: literature, Michna et al 1995.

Each structure is given as a SMILES string.

Take `CC#C[C@]1(O)CC[C@H]2[C@@H]3CCC4=CC(=O)CCC4=C3[C@@H](c3ccc(N(C)C)cc3)C[C@@]21C` [mifepristone]: the “effectiveness in a model of hormone dependent prostate cancer” value was “effective”.
Consider `CN(C)c1ccc([C@H]2C[C@]3(C)[C@@H](CC[C@]3(O)CCCO)[C@@H]3CCC4=CC(=O)CCC4=C32)cc1` [onapristone], for which the “effectiveness in a model of hormone dependent prostate cancer” value is “effective”.
